Measured values published in US20040067507A1, “Liver inflammation predictive genes” (priority 2002, published 2004).
Like-named read-outs stand apart in the source and are kept apart here.

Test system: Sprague Dawley rats Crl:CD
Format: in vivo, rat
From the text: In addition to the database described and utilized herein, other toxicology gene expression databases may be generated, and used to identify additional liver toxicity biomarkers, which may also be employed in the practice of the liver inflammation prediction methods of the invention. […] An example of compounds, dose levels, liver toxicity classifications and histopathology scores used in the Examples which follow are provided in Table 1. The compounds and dose levels are abbreviated in the Abbreviation Column. The Inflammation Score relates the histopathology liver inflammation, a score of “2” or higher indicates histopathology of increasing severity.
Identification of Correlating Genes: For the purpose of identifying candidate predictive genes, the database preferably includes histopathology scores for each animal which has been exposed to one or more agent(s). […] The scores are numerical scores that reflect the occurrence and severity of histopathological changes. These scores can be adjusted to have similar range to gene expression changes. […] Because the scores are numerical, they are suitable for use with a variety of statistical correlation and similarity measures.
Sprague Dawley rats Crl:CD from Charles River, Raleigh, N.C. were divided into treated rats that receive a specific concentration of the compound (see Table 1) and the control rats that only received the vehicle in which the compound is mixed (e.g., saline).
At specified timepoints (6 h, 24 h and 72 h) after administration (intraperitoneal route) of the compound, a set number of rats (usually 3 control and 3 treated) were euthanized and tissues collected. Each rat was heavily sedated with an overdose of CO2 by inhalation and a maximum amount of blood drawn. Exsanguination of the rat by this drawing of blood kills the rat. The method of collecting the tissues is very important and ensures preserving the quality of the mRNA in the tissues. The body of the rat was then opened up and prosectors rapidly removed the tissues (including liver) and immediately placed them into liquid nitrogen. […] The organs/tissues were then packaged into well-labeled plastic freezer quality bags and stored at −80 degrees until needed for isolation of the mRNA from a portion of the organ/tissue sample.
Correlation with Histopathology Scores: Histopathology scores for each animal (assigned on a compound-dose basis as indicated in Table 1) were entered with gene expression data by using the GeneSpring™ ‘Drawn Gene’ function. Correlations between inflammation histopathology scores and gene expression were conducted with the distance measures listed below: […]

[1] = Sprague Dawley Crl:CD, rat, in vivo
[2] = 2 mg/kg i.p., 72 h, 1=no histopathology, 2 or higher=increasing severity
[3] = 8 mg/kg i.p., 72 h, 1=no histopathology, 2 or higher=increasing severity
[4] = 13 mg/kg i.p., 72 h, 1=no histopathology, 2 or higher=increasing severity
[5] = 50 mg/kg i.p., 72 h, 1=no histopathology, 2 or higher=increasing severity
[6] = 25 mg/kg i.p., 72 h, 1=no histopathology, 2 or higher=increasing severity
[7] = 100 mg/kg i.p., 72 h, 1=no histopathology, 2 or higher=increasing severity
[8] = 20 mg/kg i.p., 72 h, 1=no histopathology, 2 or higher=increasing severity
[9] = 80 mg/kg i.p., 72 h, 1=no histopathology, 2 or higher=increasing severity
[10] = 12 mg/kg i.p., 72 h, 1=no histopathology, 2 or higher=increasing severity
[11] = 14 mg/kg i.p., 72 h, 1=no histopathology, 2 or higher=increasing severity
[12] = 75 mg/kg i.p., 72 h, 1=no histopathology, 2 or higher=increasing severity
[13] = 250 mg/kg i.p., 72 h, 1=no histopathology, 2 or higher=increasing severity
[14] = 1000 mg/kg i.p., 72 h, 1=no histopathology, 2 or higher=increasing severity
[15] = 200 mg/kg i.p., 72 h, 1=no histopathology, 2 or higher=increasing severity
[16] = 30 mg/kg i.p., 72 h, 1=no histopathology, 2 or higher=increasing severity
[17] = Sprague Dawley Crl:CD, rat, in vivo, ip
[18] = 0.25 ml/kg i.p., 72 h, 1=no histopathology, 2 or higher=increasing severity
[19] = 1 ml/kg i.p., 72 h, 1=no histopathology, 2 or higher=increasing severity
[20] = 38 mg/kg i.p., 72 h, 1=no histopathology, 2 or higher=increasing severity
[21] = 150 mg/kg i.p., 72 h, 1=no histopathology, 2 or higher=increasing severity
[22] = 1 mg/kg i.p., 72 h, 1=no histopathology, 2 or higher=increasing severity
[23] = 4 mg/kg i.p., 72 h, 1=no histopathology, 2 or higher=increasing severity

Compound: CC(=O)Nc1ccc(O)cc1 [acetaminophen]
- Inflamm. Score [1]: 1
- Liver Inflammation (rat, in vivo): no

Compound: COc1cc2c(c3oc(=O)c4c(c13)CCC4=O)[C@@H]1C=CO[C@@H]1O2 [aflatoxin]
- Inflamm. Score (rat, in vivo): 4
- Liver Inflammation (rat, in vivo): yes
- Liver Necrosis (rat, in vivo): yes
- Necr. Score (rat, in vivo): 8

Compound: Cn1c(=O)c2[nH]cnc2n(C)c1=O [theophylline]
- Inflamm. Score [1]: 1
- Necr. Score [1]: 1
- Liver Inflammation (rat, in vivo): no
- Liver Necrosis (rat, in vivo): no

Compound: lipopolysaccharide
- Liver Inflammation (2 mg/kg i.p., 72 h): no
- Liver Necrosis (2 mg/kg i.p., 72 h): no
- Inflamm. Score [2]: 1
- Necr. Score [2]: 1
- Liver Inflammation (8 mg/kg i.p., 72 h): yes
- Liver Necrosis (8 mg/kg i.p., 72 h): yes
- Inflamm. Score [3]: 2
- Necr. Score [3]: 6
- liver necrosis or necrosis with inflammation (high dose): produced liver necrosis or necrosis with inflammation
- liver necrosis or necrosis with inflammation (low dose): not at the low dose

Compound: O=P1(N(CCCl)CCCl)NCCCO1 (centres unmarked) [cyclophosphamide]
- Inflamm. Score [1]: 1
- Necr. Score [1]: 1
- Liver Inflammation (rat, in vivo): no
- Liver Necrosis (rat, in vivo): no

Compound: O=c1[nH]cc(F)c(=O)[nH]1 [5-fluorouracil]
- Liver Inflammation (13 mg/kg i.p., 72 h): no
- Liver Necrosis (13 mg/kg i.p., 72 h): no
- Inflamm. Score [4]: 1
- Necr. Score [4]: 1
- Liver Inflammation (50 mg/kg i.p., 72 h): no
- Liver Necrosis (50 mg/kg i.p., 72 h): no
- Inflamm. Score [5]: 1
- Necr. Score [5]: 1

Compound: C=C[C@H]1C[N@@]2CC[C@H]1C[C@@H]2[C@@H](O)c1ccnc2ccc(OC)cc12 [quinidine]
- Liver Inflammation (25 mg/kg i.p., 72 h): no
- Liver Necrosis (25 mg/kg i.p., 72 h): no
- Inflamm. Score [6]: 1
- Necr. Score [6]: 1
- Liver Inflammation (100 mg/kg i.p., 72 h): no
- Liver Necrosis (100 mg/kg i.p., 72 h): no
- Inflamm. Score [7]: 1
- Necr. Score [7]: 1

Compound: CCC1(c2ccccc2)C(=O)NC(=O)NC1=O [phenobarbital]
- Liver Inflammation (20 mg/kg i.p., 72 h): no
- Liver Necrosis (20 mg/kg i.p., 72 h): no
- Inflamm. Score [8]: 1
- Necr. Score [8]: 1
- Liver Inflammation (80 mg/kg i.p., 72 h): no
- Liver Necrosis (80 mg/kg i.p., 72 h): no
- Inflamm. Score [9]: 1
- Necr. Score [9]: 1

Compound: CN(C)N=O [dimethylnitrosamine]
- Liver Inflammation (20 mg/kg i.p., 72 h): yes
- Liver Necrosis (20 mg/kg i.p., 72 h): yes
- Inflamm. Score [8]: 4
- Necr. Score [8]: 9

Compound: COc1cccc2c1C(=O)c1c(O)c3c(c(O)c1C2=O)C[C@@](O)(C(=O)CO)C[C@@H]3O[C@H]1C[C@H](N)[C@H](O)[C@H](C)O1 [doxorubicin]
- Liver Inflammation (12 mg/kg i.p., 72 h): no
- Liver Necrosis (12 mg/kg i.p., 72 h): no
- Inflamm. Score [10]: 1
- Necr. Score [10]: 1

Compound: CS(=O)(=O)OCCCCOS(C)(=O)=O [busulfan]
- Liver Inflammation (14 mg/kg i.p., 72 h): no
- Liver Necrosis (14 mg/kg i.p., 72 h): no
- Inflamm. Score [11]: 1
- Necr. Score [11]: 1

Compound: Cn1cnc([N+](=O)[O-])c1Sc1ncnc2nc[nH]c12 [azathioprine]
- Inflamm. Score [1]: 1
- Necr. Score [1]: 1
- Liver Inflammation (rat, in vivo): no
- Liver Necrosis (rat, in vivo): no

Compound: CN(N=O)C(=O)N[C@H]1C(O)O[C@H](CO)[C@@H](O)[C@@H]1O (mixture of isomers) [streptozotocin]
- Liver Inflammation (20 mg/kg i.p., 72 h): no
- Liver Necrosis (20 mg/kg i.p., 72 h): no
- Inflamm. Score [8]: 1
- Necr. Score [8]: 1
- Liver Inflammation (75 mg/kg i.p., 72 h): no
- Liver Necrosis (75 mg/kg i.p., 72 h): no
- Inflamm. Score [12]: 1
- Necr. Score [12]: 1

Compound: NC(=O)NO [hydroxyurea]
- Liver Inflammation (250 mg/kg i.p., 72 h): no
- Liver Necrosis (250 mg/kg i.p., 72 h): no
- Inflamm. Score [13]: 1
- Necr. Score [13]: 1
- Liver Inflammation (1000 mg/kg i.p., 72 h): no
- Liver Necrosis (1000 mg/kg i.p., 72 h): no
- Inflamm. Score [14]: 1
- Necr. Score [14]: 1

Compound: Nc1nc(O)c2ncn(COC(CO)CO)c2n1 [gancyclovir]
- Liver Inflammation (50 mg/kg i.p., 72 h): no
- Liver Necrosis (50 mg/kg i.p., 72 h): no
- Inflamm. Score [5]: 1
- Necr. Score [5]: 1
- Liver Inflammation (200 mg/kg i.p., 72 h): no
- Liver Necrosis (200 mg/kg i.p., 72 h): no
- Inflamm. Score [15]: 1
- Necr. Score [15]: 1

Compound: c1ccc2c(c1)cc1ccc3cccc4ccc2c1c34 [benzo[a]pyrene]
- Liver Inflammation (30 mg/kg i.p., 72 h): no
- Liver Necrosis (30 mg/kg i.p., 72 h): no
- Inflamm. Score [16]: 1
- Necr. Score [16]: 1

Compound: NNc1ccccc1 [phenylhydrazine]
- Liver Inflammation (20 mg/kg i.p., 72 h): no
- Liver Necrosis (20 mg/kg i.p., 72 h): no
- Inflamm. Score [8]: 1
- Necr. Score [8]: 1
- Liver Inflammation (80 mg/kg i.p., 72 h): no
- Liver Necrosis (80 mg/kg i.p., 72 h): no
- Inflamm. Score [9]: 1
- Necr. Score [9]: 1

Compound: CN1CCN(C2=Nc3cc(Cl)ccc3Nc3ccccc32)CC1 [clozapine]
- Inflamm. Score [1]: 1
- Necr. Score [1]: 1
- Liver Inflammation (rat, in vivo): no
- Liver Necrosis (rat, in vivo): no

Compound: C=CCN1CC[C@]23c4c5ccc(O)c4O[C@H]2C(=O)CC[C@@]3(O)[C@H]1C5 [naloxone]
- Inflamm. Score [1]: 1
- Necr. Score [1]: 1
- Inflamm. Score [17]: 1
- Necr. Score [17]: 1
- Liver Inflammation (rat, in vivo): no
- Liver Necrosis (rat, in vivo): no
- Liver Inflammation (rat, in vivo, ip): no
- Liver Necrosis (rat, in vivo, ip): no

Compound: ClC(Cl)(Cl)Cl [carbon tetrachloride]
- Liver Inflammation (0.25 ml/kg i.p., 72 h): no
- Liver Necrosis (0.25 ml/kg i.p., 72 h): yes
- Inflamm. Score [18]: 1
- Necr. Score [18]: 3
- Liver Inflammation (1 ml/kg i.p., 72 h): yes
- Liver Necrosis (1 ml/kg i.p., 72 h): yes
- Inflamm. Score [19]: 3
- Necr. Score [19]: 6
- liver necrosis or necrosis with inflammation (high dose): produced liver necrosis or necrosis with inflammation
- liver necrosis or necrosis with inflammation (low dose): not at the low dose

Compound: C[C@@H]1C[C@H]2[C@@H]3CCC4=CC(=O)C=C[C@]4(C)[C@@]3(F)[C@@H](O)C[C@]2(C)[C@@]1(O)C(=O)CO [dexamethasone]
- Inflamm. Score [1]: 1
- Necr. Score [1]: 1
- Liver Inflammation (rat, in vivo): no
- Liver Necrosis (rat, in vivo): no

Compound: CC(=O)N1CCN(c2ccc(OCC3COC(Cn4ccnc4)(c4ccc(Cl)cc4Cl)O3)cc2)CC1 (centres unmarked) [ketoconazole]
- Inflamm. Score [1]: 1
- Necr. Score [1]: 1
- Liver Inflammation (rat, in vivo): no
- Liver Necrosis (rat, in vivo): no

Compound: gentamicin
- Liver Inflammation (38 mg/kg i.p., 72 h): no
- Liver Necrosis (38 mg/kg i.p., 72 h): no
- Inflamm. Score [20]: 1
- Necr. Score [20]: 1
- Liver Inflammation (150 mg/kg i.p., 72 h): no
- Liver Necrosis (150 mg/kg i.p., 72 h): no
- Inflamm. Score [21]: 1
- Necr. Score [21]: 1

Compound: [Cl][Cd][Cl] [cadmium chloride]
- Liver Inflammation (1 mg/kg i.p., 72 h): no
- Liver Necrosis (1 mg/kg i.p., 72 h): no
- Inflamm. Score [22]: 1
- Necr. Score [22]: 1
- Liver Inflammation (2 mg/kg i.p., 72 h): no
- Liver Necrosis (2 mg/kg i.p., 72 h): no
- Inflamm. Score [2]: 1
- Necr. Score [2]: 1
- Liver Inflammation (4 mg/kg i.p., 72 h): yes
- Liver Necrosis (4 mg/kg i.p., 72 h): yes
- Inflamm. Score [23]: 2
- Necr. Score [23]: 3

Compound: CN(C)CCCN1c2ccccc2Sc2ccc(Cl)cc21 [chlorpromazine]
- Liver Inflammation (8 mg/kg i.p., 72 h): no
- Liver Necrosis (8 mg/kg i.p., 72 h): no
- Inflamm. Score [3]: 1
- Necr. Score [3]: 1
- Liver Inflammation (30 mg/kg i.p., 72 h): no
- Liver Necrosis (30 mg/kg i.p., 72 h): no
- Inflamm. Score [16]: 1
- Necr. Score [16]: 1
